# Measured values: patent publication US20250059182A1, “SOS1 INHIBITORS” (Mirati Therapeutics, Inc., priority 2021, published 2025)
# Where a name gives a salt, the structure may show the parent alone. Read-outs that look alike come from different tables or passages of the source.
# Columns and labels:
# [1] = molecular target: T1, recombinant human SOS1 polypeptide (amino acids 560-1049) (Homo sapiens, UniProt Q07889); experiment: HTRF displacement assay: inhibition of labeled tracer binding to SOS1; conditions: Table A1, Morrison equation for competitive binding
# T1 construct: corresponding to amino acids 560-1049, expressed in E. Coli; made in house; host or cells: E. coli
# T1 sequence (Q07889 560-1049): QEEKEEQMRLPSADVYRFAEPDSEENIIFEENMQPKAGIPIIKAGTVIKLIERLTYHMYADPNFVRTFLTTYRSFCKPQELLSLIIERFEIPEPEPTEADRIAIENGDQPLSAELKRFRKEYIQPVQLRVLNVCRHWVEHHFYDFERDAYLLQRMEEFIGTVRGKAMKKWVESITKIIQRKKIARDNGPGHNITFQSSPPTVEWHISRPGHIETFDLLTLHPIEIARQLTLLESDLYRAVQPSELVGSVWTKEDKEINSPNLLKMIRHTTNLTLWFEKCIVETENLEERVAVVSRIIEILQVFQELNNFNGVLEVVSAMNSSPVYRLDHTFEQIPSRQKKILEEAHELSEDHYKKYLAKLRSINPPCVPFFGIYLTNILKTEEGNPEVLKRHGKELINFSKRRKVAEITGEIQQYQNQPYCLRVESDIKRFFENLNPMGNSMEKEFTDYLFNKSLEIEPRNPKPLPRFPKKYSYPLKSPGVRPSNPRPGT
# Protocol: The ability of a compound of Formula (I) to bind to SOS1 was measured using a HTRF displacement assay. […] After a 1-hour incubation at room temperature, the HTRF signal was measured using Clairostar plate reader (BMG Labtech) according to the manufacturer's instructions. Excitation filter EX-TR was used, and emission 1 was detected at 650-610 nm and emission 2 detected at 620-610 nm. The HTRF ratio was calculated using the formula: [emission 1/emission 2]*10000.
# Background signals were calculated from well with a 10 μM inhibitor, known to inhibit 100% at that concentration. The background subtracted signals were converted to % binding relative to DMSO controls. Data were analyzed using XLFIT software (IDBS) using a Morrison equation for competitive binding and Ki's were generated compound of Formula (I).
# pERK in MKN1 cells = experiment: pERK inhibition, In-Cell Western (LI-COR Odyssey), MKN1 cells; assay type: cell-based; conditions: Homo sapiens
# How it was run: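 IC50 was fitted from % pERK inhibition, calculated as the GAPDH-normalised pERK signal of each well divided by the vehicle mean. Signal was imaged at 700 and 800 nm after fixation, methanol permeabilisation and dual antibody staining. Before fixation, MKN1 cells had received compound for about 0.5–1 h at 37 °C, top concentration 10 µM, nine 3-fold dilutions.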
# [2] = MKN-1, Table B1, MKN1 or H358 cells (table does not say which), 0.5-1 hour incubation, read-out: IC50 (nM), pERK inhibition
# [3] = MKN-1, read-out: IC50 (nM), pERK inhibition
Structure (SMILES),Ki [1] [nM],IC50 (pERK in MKN1 cells; [2]) [nM],IC50 (pERK in MKN1 cells; [3]) [nM]
"Cc1c(C#N)cccc1[C@@H](C)Nc1nnc(N2CC[C@H](N(C)C)C2)c2cnc(N3C[C@H]4C[C@@H]3CO4)cc12 [Example P-176, 3-((R)-1-((7-((1R,4R)-2-oxa-5-azabicyclo[2.2.1]heptan-5-yl)-4-((S)-3-(dimethylamino)pyrrolidin-1-yl)pyrido[3,4-d]pyridazin-1-yl)amino)ethyl)-2-methylbenzonitrile]",0.708,120,–
"Cc1c(C#N)cccc1[C@@H](C)Nc1nnc(N2CC(N)C2)c2cnc(N3C[C@H]4C[C@@H]3CO4)cc12 [Example P-177, 3-((R)-1-((4-(3-aminoazetidin-1-yl)-7-((1R,4R)-2-oxa-5-azabicyclo[2.2.1]heptan-5-yl)pyrido[3,4-d]pyridazin-1-yl)amino)ethyl)-2-methylbenzonitrile]",0.541,451,–
"Cc1c(C#N)cccc1[C@@H](C)Nc1nnc(C)c2cc(F)c(N(C)[C@@H]3CCN(C)C3)cc12 [Example P-178, 3-((R)-1-((6-fluoro-4-methyl-7-(methyl((R)-1-methylpyrrolidin-3-yl)amino)phthalazin-1-yl)amino)ethyl)-2-methylbenzonitrile]",1.1,54.7,–
"Cc1c(C#N)cccc1[C@@H](C)Nc1nnc(C)c2cc(F)c(N(C)[C@H]3CCN(C)C3)cc12 [Example P-179, 3-((R)-1-((6-fluoro-4-methyl-7-(methyl((S)-1-methylpyrrolidin-3-yl)amino)phthalazin-1-yl)amino)ethyl)-2-methylbenzonitrile]",0.714,84.7,–
"Cc1c(C#N)cccc1[C@@H](C)Nc1nnc(N2CC(N(C)C)C2)c2cnc(N3C[C@H]4C[C@@H]3CO4)cc12 [Example P-180, 3-((R)-1-((7-((1R,4R)-2-oxa-5-azabicyclo[2.2.1]heptan-5-yl)-4-(3-(dimethylamino)azetidin-1-yl)pyrido[3,4-d]pyridazin-1-yl)amino)ethyl)-2-methylbenzonitrile]",0.491,53.4,–
"Cc1nnc(N[C@H](C)c2cccc(C(F)(F)F)c2F)c2cc(N(C)[C@H]3CCN(C)C3)c(F)cc12 [Example P-181, 6-fluoro-N^1-((R)-1-(2-fluoro-3-(trifluoromethyl)phenyl)ethyl)-N7,4-dimethyl-N^7-((S)-1-methylpyrrolidin-3-yl)phthalazine-1,7-diamine]",0.711,223,–
"Cc1nnc(N[C@H](C)c2cccc3c2OCC3(F)F)c2cc(N3C[C@@H]4C[C@H]3CN4C)ncc12 [Example P-184, N-((R)-1-(3,3-difluoro-2,3-dihydrobenzofuran-7-yl)ethyl)-4-methyl-7-((1S,4S)-5-methyl-2,5-diazabicyclo[2.2.1]heptan-2-yl)pyrido[3,4-d]pyridazin-1-amine formic acid salt]",1.02,–,65.7
"Cc1c(C#N)cccc1[C@@H](C)Nc1nnc(C)c2cc(C(F)F)c(N3CCN(C)CC3)cc12 [Example P-185, (R)-3-(1-((6-(difluoromethyl)-4-methyl-7-(4-methylpiperazin-1-yl)phthalazin-1-yl)amino)ethyl)-2-methylbenzonitrile formic acid]",4.95,–,118
"Cc1c(C#N)cccc1[C@@H](C)Nc1nnc(C)c2cc(CF)c(N3CCN(C)CC3)cc12 [Example P-186, (R)-3-(1-((6-(fluoromethyl)-4-methyl-7-(4-methylpiperazin-1-yl)phthalazin-1-yl)amino)ethyl)-2-methylbenzonitrile]",1.27,181,–
"Cc1c(C#N)cccc1[C@@H](C)Nc1nnc(C)c2c(C)nc(N3CCOCC3)cc12 [Example P-188, (R)-3-(1-((4,5-dimethyl-7-morpholinopyrido[3,4-d]pyridazin-1-yl)amino)ethyl)-2-methylbenzonitrile]",2.5,49.1,–
"Cc1c(C#N)cccc1[C@@H](C)Nc1nnc(C)c2c(C)nc(N(C)[C@H]3CCN(C)C3)cc12 [Example P-190, 3-((R)-1-((4,5-dimethyl-7-(methyl((S)-1-methylpyrrolidin-3-yl)amino)pyrido[3,4-d]pyridazin-1-yl)amino)ethyl)-2-methylbenzonitrile]",0.572,63.6,–
"Cc1c(C#N)cccc1[C@@H](C)Nc1nnc(C)c2c(C)nc(N3CCN(C)C(C)(C)C3)cc12 [Example P-191, (R)-3-(1-((4,5-dimethyl-7-(3,3,4-trimethylpiperazin-1-yl)pyrido[3,4-d]pyridazin-1-yl)amino)ethyl)-2-methylbenzonitrile]",0.892,26,–
"Cc1c(C#N)cccc1[C@@H](C)Nc1nnc(C)c2c(C)nc(N3C[C@H]4C[C@@H]3CN4C)cc12 [Example P-192, 3-((R)-1-((4,5-dimethyl-7-((1R,4R)-5-methyl-2,5-diazabicyclo[2.2.1]heptan-2-yl)pyrido[3,4-d]pyridazin-1-yl)amino)ethyl)-2-methylbenzonitrile]",2.93,104,–
"Cc1c(C#N)cccc1[C@@H](C)Nc1nnc(C)c2cc(Cl)c(N(C)[C@H]3CCN(C)C3)cc12 [Example P-193, 3-((R)-1-((6-chloro-4-methyl-7-(methyl((S)-1-methylpyrrolidin-3-yl)amino)phthalazin-1-yl)amino)ethyl)-2-methylbenzonitrile]",1.47,512,–
"Cc1c(C#N)cccc1[C@@H](C)Nc1nnc(C)c2cc(Cl)c(N(C)[C@@H]3CCN(C)C3)cc12 [Example P-194, 3-((R)-1-((6-chloro-4-methyl-7-(methyl((R)-1-methylpyrrolidin-3-yl)amino)phthalazin-1-yl)amino)ethyl)-2-methylbenzonitrile]",5.27,231,–
"Cc1c(C#N)cccc1[C@@H](C)Nc1nnc(C)c2cc(Cl)c(N(C)C)cc12 [Example P-195, (R)-3-(1-((6-chloro-7-(dimethylamino)-4-methylphthalazin-1-yl)amino)ethyl)-2-methylbenzonitrile formic acid salt]",154,–,7130
"Cc1c(C#N)cccc1[C@@H](C)Nc1nnc(C)c2cc(Cl)c(N(C)C[C@H]3CCCN3C)cc12 [Example P-196, 3-((R)-1-((6-chloro-4-methyl-7-(methyl(((R)-1-methylpyrrolidin-2-yl)methyl)amino)phthalazin-1-yl)amino)ethyl)-2-methylbenzonitrile formic acid salt]",5.98,–,584
"Cc1c(C#N)cccc1[C@@H](C)Nc1nnc(C)c2cc(Cl)c(N3CCS(=O)(=O)CC3)cc12 [Example P-197, (R)-3-(1-((6-chloro-7-(1,1-dioxidothiomorpholino)-4-methylphthalazin-1-yl)amino)ethyl)-2-methylbenzonitrile]",8.97,204,–
"Cc1c(C#N)cccc1[C@@H](C)Nc1nnc(C)c2cc(Cl)c(N3CCC34CN(C)C4)cc12 [Example P-198, (R)-3-(1-((6-chloro-4-methyl-7-(6-methyl-1,6-diazaspiro[3.3]heptan-1-yl)phthalazin-1-yl)amino)ethyl)-2-methylbenzonitrile]",1.1,182,–
"Cc1nnc(N[C@H](C)c2cccc(C(C)(F)F)c2F)c2cc(N(C)[C@@H]3CCN(C)C3)ncc12 [Example P-199, N1-((R)-1-(3-(1,1-difluoroethyl)-2-fluorophenyl)ethyl)-N7,4-dimethyl-N7-((R)-1-methylpyrrolidin-3-yl)pyrido[3,4-d]pyridazine-1,7-diamine]",0.321,59.1,–
"Cc1nnc(N[C@H](C)c2cccc(C(C)(F)F)c2F)c2cc(N(C)[C@H]3CCN(C)C3)ncc12 [Example P-200, N1-((R)-1-(3-(1,1-difluoroethyl)-2-fluorophenyl)ethyl)-N7,4-dimethyl-N7-((S)-1-methylpyrrolidin-3-yl)pyrido[3,4-d]pyridazine-1,7-diamine]",0.517,6.77,–
"Cc1c(C#N)cccc1[C@@H](C)Nc1nnc(C)c2cnc(N3CCOCC34CN(C)C4)cc12 [Example P-211, (R)-2-methyl-3-(1-((4-methyl-7-(2-methyl-8-oxa-2,5-diazaspiro[3.5]nonan-5-yl)pyrido[3,4-d]pyridazin-1-yl)amino)ethyl)benzonitrile]",13.4,503,–
"Cc1ccccc1[C@@H](C)Nc1nnc(C)c2cnc(N3CCOCC3)cc12 [Example P-212, (R)-4-methyl-7-morpholino-N-(1-(o-tolyl)ethyl)pyrido[3,4-d]pyridazin-1-amine]",54.8,894,–
"Cc1c(Br)cccc1[C@@H](C)Nc1nnc(C)c2cc(F)c(N3CCC34CN(C)C4)cc12 [Example P-214, (R)-N-(1-(3-bromo-2-methylphenyl)ethyl)-6-fluoro-4-methyl-7-(6-methyl-1,6-diazaspiro[3.3]heptan-1-yl)phthalazin-1-amine]",0.262,156,–
